Measured values reported in publication PMC8745710, “Biological Evaluation and Molecular Docking Studies of Novel 1,3,4-Oxadiazole Derivatives of 4,6-Dimethyl-2-sulfanylpyridine-3-carboxamide” (International Journal of Molecular Sciences, 2022).
Like-named read-outs stand apart in the source and are kept apart here.

How the values were obtained:
COX-2 = target: T1, COX-2 (Homo sapiens, UniProt P35354); assay: COX colorimetric inhibitor screening assay, COX-2; type: biochemical; conditions: for IC50 [µM] ± SD COX-2 / IC50: after 2 min of incubation, n = 5; for IC50: read-out: IC50 [µM] ± SD COX-2; for COX-2/COX-1 Selectivity Ratio: ratio of IC50 COX-2 / IC50 COX-1
T1 construct: purchased Cayman Chemical Company, Ann Arbor, MI, USA
T1 sequence (P35354 18-604): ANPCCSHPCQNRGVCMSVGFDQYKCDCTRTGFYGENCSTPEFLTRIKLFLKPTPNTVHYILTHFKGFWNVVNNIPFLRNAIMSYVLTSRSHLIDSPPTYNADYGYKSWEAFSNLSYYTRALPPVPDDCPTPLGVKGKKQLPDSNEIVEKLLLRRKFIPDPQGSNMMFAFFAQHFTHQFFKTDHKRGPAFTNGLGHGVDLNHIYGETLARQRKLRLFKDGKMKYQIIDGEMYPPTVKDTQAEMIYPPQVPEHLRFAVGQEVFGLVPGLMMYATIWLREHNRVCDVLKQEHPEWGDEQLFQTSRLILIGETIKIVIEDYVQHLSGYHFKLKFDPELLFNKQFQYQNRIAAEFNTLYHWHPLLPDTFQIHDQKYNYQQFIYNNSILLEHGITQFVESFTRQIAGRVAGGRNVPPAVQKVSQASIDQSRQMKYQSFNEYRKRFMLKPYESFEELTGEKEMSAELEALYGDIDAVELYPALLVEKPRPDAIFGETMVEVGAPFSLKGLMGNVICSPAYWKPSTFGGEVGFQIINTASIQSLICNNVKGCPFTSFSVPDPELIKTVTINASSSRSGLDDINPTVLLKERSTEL
Text: The compounds were studied for their potencies to inhibit COX-1 and COX-2 enzymes by the colorimetric inhibitor screening assay.
A COX Colorimetric Inhibitor Screening Assay Kit, produced by Cayman Chemical Company, Ann Arbor, MI, USA, was used. It used the colorimetric monitoring of oxidized form of TMPD (N,N,N′,N′-tetramethyl-p-phenylenediamine) which was produced during reduction of prostaglandin G2 (PGG2) to PGH2. […] Reagents used it this assay were: COX-1 and COX-2 enzymes, Tris-HCl buffer, solutions of heme in DMSO and TMPD, arachidonic acid, KOH. To be sure that 100% enzymatic activity was achieved each sample was measured 3 times. The probes were measured after two minutes of incubation with tested compounds in the comparison to the initial activity of enzyme.

[1] = system: V79 (fibroblasts from Chinese hamster lung); assay: MTT assay, V79; type: cell-based; conditions: Cricetulus griseus, Fibroblast, 48 h incubation, read-out: IC50 [µM] ± SD V79
Text: (§1) The MTT (3-[4,5-dimethylthiazol-2-yl]-2,5-diphenyl tetrazolium bromide) assay was used to determine the cytotoxicity of tested compounds towards different cell lines: normal human dermal fibroblasts (NHDF), kidney epithelial cells (VERO), fibroblasts from Chinese hamster lung (V79) and four human cancer cells: A549 (pulmonary basal cell alveolar adenocarcinoma), MCF-7 (breast adenocarcinoma), LoVo (colon adenocarcinoma), and its drug resistant subline LoVo/Dx. The cell lines used in this study express COX-1 and COX-2. The LoVo line expressed COX-1, the LoVo/Dx subline express both COX-1 and COX-2 [61].
(§2) Each cell line was grown in the culture media recommended by supplier. Before the test they were detached with trypsin/EDTA solution, then to neutralize the effect of Trypsin/EDTA solution, FBS containing medium was used. After centrifugation the cells were stained with 0.4% solution of trypan blue, counted and inspected for viability using microscope. In the end, cells were inserted into 96-well culture plates and incubated in CO2 incubator (37 °C, 24 h). The number of cells was 2 × 10^3 cells per well. The tested compounds with different concentrations (5, 10, 20, 50, 100 µM) were dissolved in DMSO and then added to the cells (the final DMSO concentration was 0.1%). The cultures were incubated for another 48 h. After that time the cells were collected to be used in tests.
MTT assay was used to find out how tested compounds influence the metabolic activity of investigated cell lines. The cells were incubated with tested compounds. After removing of supernatant, 1 mg/mL of MTT solution in MEM was added to the plate (to each well) and then the plates were incubated at 37 °C for 2 h. The medium was removed again, and formazan crystals were dissolved in isopropanol. A Varioscan LUX microplate reader (Thermo Fisher Scientific, Waltham, MA, USA) was used to measure absorbance at 570 nm.

[2] = system: LoVo/Dx (drug resistant subline of LoVo); assay: MTT assay, LoVo/Dx; type: cell-based; conditions: Homo sapiens, 48 h incubation, read-out: IC50 [µM] ± SD LoVo/Dx
Text: as §1
as §2, with “In the end, cells were inserted into 96-well culture plates and incubated in CO2 incubator (37 °C, 24 h).” left out
MTT assay was used to find out how tested compounds influence the metabolic activity of investigated cell lines. The cells were incubated with tested compounds. […] The medium was removed again, and formazan crystals were dissolved in isopropanol.

V79 cell line = assay: Intracellular ROS level (DCFH-DA), V79 cells; type: cell-based, Chinese hamster; conditions: Cricetulus griseus, 4 h, V79, compound 100 μM
Method: Two cell lines were chosen for investigations: V79 (Chinese hamster lung fibroblasts) and LoVo. V79 normal cells are widely used as the cell line tested in the studies of the oxidative stress. These cells are a living system model to explain the mechanism of ROS effects caused by varied compounds [73].
First, the tested compounds (in concentration of 100 μM) were added to the cell cultures and cells were incubated for 4 h. Then cells were washed and incubated with DCFH-DA (non-fluorescent probe) in dark at 37 °C for 2 h at CO2 [79]. Non-fluorescent, non-polar DCFH-DA (2′7′-dichlorodihydrofluorescein diacetate) at concentration of 25 μM was used as a marker of oxidative stress to determine the intracellular ROS levels. […] In this time, DCFH-DA which penetrated into the cells, was hydrolyzed by esterases to polar, non-fluorescent DCFH (2′7′-dichlorodihydrofluorescein) and then oxidized in the presence of ROS (reactive oxygen species) to fluorescent DCF (2′7′-dichlorofluorescein). DCF was measured using Varioscan LUX microplate reader (Thermo Fisher Scientific, Waltham, MA, USA) at λex = 485 nm and λem = 535 nm. Then results were presented as E/E0 where E is test sample value and E0—control value.
[…] E is the culture with the tested compound and E0 is the negative control without the compound. The routine statistical methods: two-way analysis of variance ANOVA as well as Tukey’s post-hoc test were used. It allowed us to determine the statistical significance of results, where p < 0.05 was set as significant. The statistical indicators were estimated using Statistica 13.3 software.

[3] = with H2O2 (100 μM, 30 min), n = 5, read-out: ROS scavenging activity, Mean E/E0 ± SD, with H2O2
[4] = without H2O2, n = 5, read-out: ROS scavenging activity, Mean E/E0 ± SD, without H2O2

SMILES	IC50 [µM] ± SD COX-2 (COX-2)	IC50 [1]	IC50 [2]	activity at 100 µM (V79 cell line; [3])	activity at 100 µM (V79 cell line; [4])	IC50 (COX-2)	COX-2/COX-1 Selectivity Ratio (COX-2)
Cc1cc(C)c(C(=O)NCc2nn(CC(=O)NN)c(=S)o2)c(S)n1 [Compound 4, N-{[4-(2-hydrazinyl-2-oxoethyl)-5-sulfanylidene-4,5-dihydro-1,3,4-oxadiazol-2-yl]methyl}-4,6-dimethyl-2-sulfanylpyridine-3-carboxamide]	showed only COX-1 inhibitory activity	71.7 ± 5.8 µM	5.73 ± 3.84 µM	42 ± 8%	53 ± 22%	–	–
Cc1cc(C)c(C(=O)NCc2nn(CC(=O)NN=Cc3ccccc3)c(=S)o2)c(S)n1 [Compound 5, 4,6-Dimethyl-N-{[4-(2-(2-benzylidenehydrazinyl)-2-oxoethyl)-5-sulfanylidene-4,5-dihydro-1,3,4-oxadiazol-2-yl]methyl}-2-sulfanylpyridine-3-carboxamide]	–	84.3 ± 3.4 µM	5.69 ± 1.03 µM	59 ± 21%	82 ± 13%	187 ± 15.3 µM	2.53
Cc1cc(C)c(C(=O)NCc2nn(CC(=O)NN=Cc3ccc(F)cc3)c(=S)o2)c(S)n1 [Compound 6, 4,6-Dimethyl-N-{[4-(2-(2-(4-fluorobenzylidene)hydrazinyl)-2-oxoethyl)-5-sulfanylidene-4,5-dihydro-1,3,4-oxadiazole-2-yl]methyl}-2-sulfanylpyridine-3-carboxamide]	–	80.7 ± 5.6 µM	7.07 ± 2.48 µM	97 ± 11%	82 ± 17%	174 ± 5.84 µM	1.20
Cc1ccc(C=NNC(=O)Cn2nc(CNC(=O)c3c(C)cc(C)nc3S)oc2=S)cc1 [Compound 7, 4,6-Dimethyl-N-{[4-(2-(2-(4-methylbenzylidene)hydrazinyl)-2-oxoethyl)-5-sulfanylidene-4,5-dihydro-1,3,4-oxadiazole-2-yl]methyl}-2-sulfanylpyridine-3-carboxamide]	–	47.7 ± 1.73 µM	7.89 ± 1.78 µM	81 ± 23%	103 ± 39%	184 ± 18.8 µM	1.25
CSc1ccc(/C=N\NC(=O)Cn2nc(CNC(=O)c3c(C)cc(C)nc3S)oc2=S)cc1 [Compound 8, 4,6-Dimethyl-N-{[4-(2-(2-(4-methysulfanylbenzylidene)hydrazinyl)-2-oxoethyl)-5-sulfanylidene-4,5-dihydro-1,3,4-oxadiazole-2-yl]methyl}-2-sulfanylpyridine-3-carboxamide]	showed only COX-1 inhibitory activity	71.1 ± 2.4 µM	21 ± 5.92 µM	72 ± 11%	85 ± 29%	–	–
Cc1cc(C)c(C(=O)NCc2nn(CC(=O)NN=Cc3ccc(C#N)cc3)c(=S)o2)c(S)n1 [Compound 9, 4,6-Dimethyl-N-{[4-(2-(2-(4-cyanobenzylidene)hydrazinyl)-2-oxoethyl)-5-sulfanylidene-4,5-dihydro-1,3,4-oxadiazole-2-yl]methyl}-2-sulfanylpyridine-3-carboxamide]	–	77.7 ± 4.41 µM	6.87 ± 1.45 µM	71 ± 12%	78 ± 31%	103 ± 10.6 µM	0.67
Cc1cc(C)c(C(=O)NCc2nn(CC(=O)NN=Cc3ccc(Cl)cc3)c(=S)o2)c(S)n1 [Compound 10, 4,6-Dimethyl-N-{[4-(2-(2-(4-chlorobenzylidene)hydrazinyl)-2-oxoethyl)-5-sulfanylidene-4,5-dihydro-1,3,4-oxadiazole-2-yl]methyl}-2-sulfanylpyridine-3-carboxamide]	–	56.1 ± 5.42 µM	22.3 ± 2.1 µM	82 ± 37%	73 ± 27%	128 ± 1.87 µM	–
Cc1cc(C)c(C(=O)NCc2nn(CC(=O)NN=Cc3ccc(C(F)(F)F)cc3)c(=S)o2)c(S)n1 [Compound 11, 4,6-Dimethyl-N-{[4-(2-(2-(4-trifluoromethylbenzylidene)hydrazinyl)-2-oxoethyl)-5-sulfanylidene-4,5-dihydro-1,3,4-oxadiazole-2-yl]methyl}-2-sulfanylpyridine-3-carboxamide]	–	55.2 ± 2.75 µM	17.5 ± 8.73 µM	112 ± 20%	67 ± 24%	170 ± 19.1 µM	1.97
Cc1cc(C)c(C(=O)NCc2nn(CC(=O)NN=Cc3cccc(Cl)c3)c(=S)o2)c(S)n1 [Compound 12, 4,6-Dimethyl-N-{[4-(2-(2-(3-chlorobenzylidene)hydrazinyl)-2-oxoethyl)-5-sulfanylidene-4,5-dihydro-1,3,4-oxadiazole-2-yl]methyl}-2-sulfanylpyridine-3-carboxamide]	–	52.8 ± 7.2 µM	22.6 ± 8.19 µM	62 ± 25%	68 ± 27%	90.7 ± 19.6 µM	1.36
Cc1cc(C)c(C(=O)NCc2nn(CC(=O)NN=Cc3ccccc3Br)c(=S)o2)c(S)n1 [Compound 13, 4,6-Dimethyl-N-{[4-(2-(2-(2-bromobenzylidene)hydrazinyl)-2-oxoethyl)-5-sulfanylidene-4,5-dihydro-1,3,4-oxadiazole-2-yl]methyl}-2-sulfanylpyridine-3-carboxamide]	–	65.4 ± 4.04 µM	9.4 ± 5.97 µM	50 ± 15%	59 ± 8%	73.2 ± 5.66 µM	–
